In ChEMBL document CHEMBL1833878, “Cyclodepsipeptides, sesquiterpenoids, and other cytotoxic metabolites from the filamentous fungus Trichothecium sp. (MSX 51320)” (J Nat Prod, 2011):
≈ marks a conversion by molar mass, not a printed value. *1 amine or outer side, *2 acyl side, *3 side chain or, on linkers, in order; H or OH if unused. Where a SMILES comes first, the peptide text is derived from it. [ ]: non-standard residue; d: D form. X1 = CC(C)(O)[C@H](O[*:1])C(=O)[*:2]; dNMeF = CN[C@H](Cc1ccccc1)C(=O)O; Hica(2S) = CC(C)C[C@H](O)C(=O)O; NMeL = CN[C@@H](CC(C)C)C(=O)O; Hiv = CC(C)[C@H](O)C(=O)O; NMeA = CN[C@@H](C)C(=O)O

Legend:
[1] = test system: MCF7; assay: Cytotoxicity against human MCF7 cells; format: functional, cell-based
[2] = Cytotoxicity against human HTB-177 cells; format: functional, cell-based
[3] = test system: SF-268; assay: Cytotoxicity against human SF268 cells; format: functional, cell-based
[4] = test system: NCI-H460; assay: Cytotoxicity against human NCI-H460 cells; format: functional, cell-based
[5] = test system: Staphylococcus epidermidis; assay: Antibacterial activity against Staphylococcus epidermidis; format: functional
[6] = test system: Enterococcus durans; assay: Antibacterial activity against Enterococcus durans; format: functional
[7] = test system: HT-29; assay: Cytotoxicity against human HT-29 cells; format: functional, cell-based
[8] = Cytotoxicity against human HTB-38 cells; format: functional, cell-based
[9] = Cytotoxicity against human HTB-129 cells; format: functional, cell-based
[10] = test system: MDA-MB-435; assay: Cytotoxicity against human MDA-MB-435 cells; format: functional, cell-based

In the case of `C/C=C\C(=O)O[C@@H]1CC2O[C@@H]3C=C(C)[C@@H](O)C4OCC2(O)[C@@]1(C)[C@]43C` (some centres undefined), the IC50 [1] is reported as over 10 µM, the IC50 [2] is reported as over 10 µM and the IC50 [3] is reported as over 10 µM. For the same compound, the IC50 [4] was over 10 µM.
`CC(C)C[C@@H]1OC(=O)[C@H](C)NC(=O)[C@H](C(C)(C)O)OC(=O)[C@H](C)N(C)C(=O)[C@@H](C)NC(=O)[C@@H](Cc2ccccc2)N(C)C1=O` [GUANGOMIDE A] (cyclo(A[Hica(2S)][dNMeF][dA][NMeA][X1])) gave an EC50 [1] of 15 µM, an EC50 [3] of 15 µM and an MIC [5] of 100 µg/mL (≈ 162 µM). It also gave an EC50 [4] of 15 µM and an MIC [6] of 100 µg/mL (≈ 162 µM).
Compound `CC(C)C[C@@H]1OC(=O)[C@H](C(C)C)OC(=O)[C@H](CO)NC(=O)[C@H](C(C)C)NC(=O)[C@H](CC(C)C)N(C)C(=O)[C@H](Cc2ccccc2)NC1=O` [TRICHODEPSIPEPTIDE B] (cyclo(F[NMeL]VS[Hiv][Hica(2S)])) has an IC50 [1] of over 10 µM, an IC50 [7] of over 10 µM and an IC50 [8] of over 10 µM. For the same compound, the IC50 [9] was over 10 µM, the IC50 [2] was over 10 µM and the IC50 [3] was over 10 µM. For the same compound, the IC50 [10] was over 10 µM and the IC50 [4] was over 10 µM.
`CC(C)C[C@@H]1NC(=O)[C@H](CC(C)C)N(C)C(=O)[C@H](Cc2ccccc2)NC(=O)[C@H](CC(C)C)OC(=O)[C@H](C(C)C)OC(=O)[C@H](CO)NC1=O` [TRICHODEPSIPEPTIDE] (cyclo(F[NMeL]LS[Hiv][Hica(2S)])) showed an IC50 [1] of over 10 µM, an IC50 [7] of over 10 µM and an IC50 [8] of over 10 µM. It also gave an IC50 [9] of over 10 µM, an IC50 [2] of over 10 µM and an IC50 [3] of over 10 µM. For the same compound, the IC50 [10] was over 10 µM and the IC50 [4] was over 10 µM.
With `COC(=O)[C@@H]1O[C@@H](O)C(=O)[C@]2(C(O)/C=C(C)/C=C/C=C(\C)CCC=C(C)C)O[C@H]12` (some centres undefined) [TRICHOTHOSPORON A] the IC50 [1] was over 10 µM, the IC50 [2] was over 10 µM and the IC50 [3] was over 10 µM. For the same compound, the IC50 [4] was over 10 µM.
